16 molecules from patent US20170275650A1, “ENDOSOMAL ESCAPE DOMAINS FOR […] OF MACR[…] CELLS” (priority 2014, published 2017) can be followed below.

Entries after “also recorded” stand apart in the source; their conditions may differ. Where a SMILES comes first, the peptide text is derived from it. Bridges are numbered along the chain shown (N, C = ends). Roman numbers before positions name the chains, in order. Where no end group is shown, it is not given here.

One data set concerns GFPβ1-10 expressing H1299c#G3 cells. Kind of data set: split GFP fluorescence complementation transduction assay (FACS). In kind it is cell-based, human. The note with it: 30 μM GFPβ11-(S-S)-PTD/CPP peptide, FACS (FIG. 3B, C). How it is done: Peptide transduction. All transduction experiments were performed in 48-well plates. An optimized protocol was established. First, 15,000 or 20,000 cells were plated in each well. Next day, the indicated peptides were pipetted into eppendorf tubes. Transduction buffer (60% OptiMEM and 40% PBS) was added to peptide (100 μl total volume), directly mixed by pipetting up and down five times and then immediately transferred to cells. All pipetting steps were done in a laminar flow cell culture hood and standardized to 15 min for each plate before transferring the plate of cells to a 37° C. CO2 incubator for 1.5 h before addition of 500 μl DMEM supplemented with 10% FBS and another incubation round for 3.5 h in the 37° C. CO2 incubator (alternatively cells were incubated 2 h with peptides and another 4 h with DMEM, 10% FBS (FIG. 8b, c, d). For the transduction time-course, cells were incubated with peptides in transduction buffer until indicated time-points. All cells were trypzinized and collected in 250 μl OptiMEM without phenol red and analyzed by FACS (GFP, FSC/SSC). 4000 viable cells were analyzed per sample. Data is presented as fold change in fluorescence compared to non-treated cells.
To address these problems, the disclosure provides a self-assembling, bimolecular or split GFP fluorescence complementation system that was originally designed to tag and monitor proteins. GFP is composed of 11 β-strands that form a barrel structure allowing for peptidyl backbone cyclization and formation of a fluorescent chromophore. […] Importantly, co-incubation of GFPβ1-10 with the GFPβ11 peptide in trans efficiently reconstitutes GFP fluorescent chromophore bond and GFP fluorescence (FIG. 1a). To study PTD-mediated delivery, cell lines were generated that constitutively expressed the non-fluorescent GFPβ1-10 fragment and treated them in trans with a GFPβ11-PTD/CPP peptide to restore GFP fluorescence.
Cell clones of various human cell lines constitutively expressing the non-fluorescent large GFPβ1-10 fragment, including H1299 non-small cell lung carcinoma, HaCaT immortalized keratinocytes, and MDA-MB-231 and MCF7 breast carcinomas, and assayed for reconstituted intracellular GFP fluorescence after treatment with transducible GFPβ11-PTD/CPP peptides by FACS (FIG. 1a). Starting with human H1299 cells, known to be a good model for PTD/CPP-mediated uptake, two GFPβ1-10 expressing clones were generated (c#G3 and c#G4) (FIG. 8a). GFPβ1-10 expressing H1299c#G3 cells were treated for 1.5 h with increasing amounts of transducible GFPβ11-TAT peptide (0-60 μM), followed by an additional 3.5 h in DMEM supplemented with 10% FBS. At 5 h post-addition of GFPβ11-TAT peptide, cells were trypsinized and live cell assayed by FACS.
In the case of “RDHMVLHEYVNAAGIT-GGSGGC-(S-S)-CGG-KKKKKKKK (chain 1 RDHMVLHEYVNAAGITGGSGGC; chain 2 CGGKKKKKKKK; also: disulfide to a chain's N/C-terminus) [GFPβ11-(S-S)-8xLys]”, the “GFP fluorescence, head-to-head comparison of PTD/CPP delivery domains” value (from here on “GFP fluorescence … of PTD/CPP delivery domains”) is “failed to induce GFP fluorescence to any high degree”.

Consider “RDHMVLHEYVNAAGIT-GGSGGC-(S-S)-CGG-LLIILRRRIRKQAHAHSK [GFPβ11-(S-S)-pVEC]”, for which the “GFP fluorescence … of PTD/CPP delivery domains” value is “only slightly above background”.

As to “RDHMVLHEYVNAAGIT-GGSGGC-(S-S)-CGG-GALFLGFLGAAGSTMGAWSQPKKKRKV (chain 1 RDHMVLHEYVNAAGITGGSGGC; chain 2 CGGGALFLGFLGAAGSTMGAWSQPKKKRKV; also: disulfide to a chain's N/C-terminus) [GFPβ11-(S-S)-MPG]”, the “GFP fluorescence … of PTD/CPP delivery domains” value is on record as “only slightly above background”.

“RDHMVLHEYVNAAGIT-GGSGGC-(S-S)-CGG-RRRRRRRR (chain 1 RDHMVLHEYVNAAGITGGSGGC; chain 2 CGGRRRRRRRR; also: disulfide to a chain's N/C-terminus) [GFPβ11-(S-S)-8xArg]”: the “GFP fluorescence … of PTD/CPP delivery domains” value is “significantly better uptake”.

The data set is the same for the next values; noted with them: 30 μM peptide plus 100 μM Chloroquine (FIG. 3C).
With “RDHMVLHEYVNAAGIT-GGSGGC-(S-S)-CGG-KKKKKKKK (chain 1 RDHMVLHEYVNAAGITGGSGGC; chain 2 CGGKKKKKKKK; also: disulfide to a chain's N/C-terminus) [GFPβ11-(S-S)-8xLys]”, the “GFP fluorescence after addition of Chloroquine” value is on record as “failed to induce GFP fluorescence to any high degree”.

Still in this data set, the particulars now being: GFPβ11-(S-S)-TAT-PEG(n)-GWWG series (FIG. 4).
On to “RDHMVLHEYVNAAGIT-GGSGGC-(S-S)-CGG-RKKRRQRRR-(PEG)18-GWWG (disulfide bond, (PEG)18-GWWG) [GFPβ11-(S-S)-TAT-P18-WW]”, for which the “escape efficiency compared to the six PEG unit (P6) spacer” value is “lower escape efficiency”.

For the molecule “RDHMVLHEYVNAAGIT-GGSGGC-(S-S)-CGG-RKKRRQRRR-(PEG)12-GWWG (disulfide bond, (PEG)12-GWWG) [GFPβ11-(S-S)-TAT-P12-WW]”, the “escape efficiency compared to the six PEG unit (P6) spacer” value is recorded as “lower escape efficiency”.

Staying with this data set, now noted: PEG6-spaced EED peptides (FIG. 5A-D).
On to “RDHMVLHEYVNAAGIT-GGSGGC-(S-S)-CGG-RKKRRQRRR-(PEG)6-GWGGWG [GFPβ11-(S-S)-TAT-P6-WGGW]”, for which the “enhancement compared to the -GWWG motif” value is on record as “decreased the enhancement approximately two-fold”.

Still in this data set, the particulars now being: dose-dependent comparison, up to 60 μM, FACS (FIG. 4, 5).
“RDHMVLHEYVNAAGIT-GGSGGC-(S-S)-CGG-RKKRRQRRR-(PEG)6-GG [GFPβ11-(S-S)-TAT-P6-GG]”: the “GFP fluorescence / transduction compared to parental GFPβ11-(S-S)-TAT” value was “lower uptake than GFPβ11-(S-S)-TAT peptide”.

In the case of “RDHMVLHEYVNAAGIT-GGSGGC-(S-S)-CGG-RKKRRQRRR-(PEG)18-GWWG (disulfide bond, (PEG)18-GWWG) [GFPβ11-(S-S)-TAT-P18-WW]”, the “GFP fluorescence / transduction compared to parental GFPβ11-(S-S)-TAT” value was “reduced GFPβ11 delivery below that of the control GFPβ11-(S-S)-TAT”.

For the molecule “RDHMVLHEYVNAAGIT-GGSGGC-(S-S)-CGG-RKKRRQRRR-(PEG)6-GFFG (disulfide bond, (PEG)6-GFFG) [GFPβ11-(S-S)-TAT-P6-GFFG]”, the “GFP fluorescence / transduction compared to parental GFPβ11-(S-S)-TAT” value is “no net effect”.

In the case of “RDHMVLHEYVNAAGIT-GGSGGC-(S-S)-CGG-RKKRRQRRR-(PEG)6-GFWG [GFPβ11-(S-S)-TAT-P6-GFWG]”, the “GFP fluorescence / transduction compared to parental GFPβ11-(S-S)-TAT” value is listed as “two-fold increase”.

On to “RDHMVLHEYVNAAGIT-GGSGGC-(S-S)-CGG-RKKRRQRRR-(PEG)6-GWWG [GFPβ11-(S-S)-TAT-P6-GWWG]”, for which the “GFP fluorescence / transduction compared to parental GFPβ11-(S-S)-TAT” value is “retained enhanced cytoplasmic delivery; also recorded: four-fold increase”.

With “RDHMVLHEYVNAAGIT-GGSGGC-(5-5)-CGG-RKKRRQRRR-(PEG)6-GWG [GFPβ11-(S-S)-TAT-P6-GWG]”, the “GFP fluorescence / transduction compared to parental GFPβ11-(S-S)-TAT” value is listed as “no net effect”.

For another data set the test system is unchanged.
Assay: not given
The data set is classed as cell-based, human. Particulars: FACS FSC/SSC and viable cell number relative to untreated control cells. From the text:
Cell morphology and cell viability.
As to `CC[C@H](C)[C@H](NC(=O)CNC(=O)[C@H](C)NC(=O)[C@H](C)NC(=O)[C@H](CC(N)=O)NC(=O)[C@@H](NC(=O)[C@H](Cc1ccc(O)cc1)NC(=O)[C@H](CCC(=O)O)NC(=O)[C@H](Cc1c[nH]cn1)NC(=O)[C@H](CC(C)C)NC(=O)[C@@H](NC(=O)[C@H](CCSC)NC(=O)[C@H](Cc1c[nH]cn1)NC(=O)[C@H](CC(=O)O)NC(=O)[C@@H](N)CCCNC(=N)N)C(C)C)C(C)C)C(=O)N[C@H](C(=O)NCC(=O)NCC(=O)N[C@@H](CO)C(=O)NCC(=O)NCC(=O)N[C@@H](CCCNC(=N)N)C(=O)N[C@@H](CCCCN)C(=O)N[C@@H](CCCCN)C(=O)N[C@@H](CCCNC(=N)N)C(=O)N[C@@H](CCCNC(=N)N)C(=O)N[C@@H](CCC(N)=O)C(=O)N[C@@H](CCCNC(=N)N)C(=O)N[C@@H](CCCNC(=N)N)C(=O)N[C@@H](CCCNC(=N)N)C(N)=O)[C@@H](C)O` [GFPβ11-TAT] (H-RDHMVLHEYVNAAGITGGSGGRKKRRQRRR-NH2), the “cytotoxicity / morphological changes” value is recorded as “did not display any cytotoxicity or morphological changes”.

Regarding `CC[C@H](C)[C@H](NC(=O)CNC(=O)[C@H](C)NC(=O)[C@H](C)NC(=O)[C@H](CC(N)=O)NC(=O)[C@@H](NC(=O)[C@H](Cc1ccc(O)cc1)NC(=O)[C@H](CCC(=O)O)NC(=O)[C@H](Cc1c[nH]cn1)NC(=O)[C@H](CC(C)C)NC(=O)[C@@H](NC(=O)[C@H](CCSC)NC(=O)[C@H](Cc1c[nH]cn1)NC(=O)[C@H](CC(=O)O)NC(=O)[C@@H](N)CCCNC(=N)N)C(C)C)C(C)C)C(=O)N[C@H](C(=O)NCC(=O)NCC(=O)N[C@@H](CO)C(=O)NCC(=O)NCC(=O)N[C@@H](CSSC[C@H](N)C(=O)NCC(=O)NCC(=O)N[C@@H](CCCNC(=N)N)C(=O)N[C@@H](CCCCN)C(=O)N[C@@H](CCCCN)C(=O)N[C@@H](CCCNC(=N)N)C(=O)N[C@@H](CCCNC(=N)N)C(=O)N[C@@H](CCC(N)=O)C(=O)N[C@@H](CCCNC(=N)N)C(=O)N[C@@H](CCCNC(=N)N)C(=O)N[C@@H](CCCNC(=N)N)C(N)=O)C(N)=O)[C@@H](C)O` [GFPβ11-(S-S)-TAT], the “cytotoxicity / morphological changes” value was “absence of cytotoxicity”.

Take `CC[C@H](C)[C@H](NC(=O)CNC(=O)[C@H](C)NC(=O)[C@H](C)NC(=O)[C@H](CC(N)=O)NC(=O)[C@@H](NC(=O)[C@H](Cc1ccc(O)cc1)NC(=O)[C@H](CCC(=O)O)NC(=O)[C@H](Cc1c[nH]cn1)NC(=O)[C@H](CC(C)C)NC(=O)[C@@H](NC(=O)[C@H](CCSC)NC(=O)[C@H](Cc1c[nH]cn1)NC(=O)[C@H](CC(=O)O)NC(=O)[C@@H](N)CCCNC(=N)N)C(C)C)C(C)C)C(=O)N[C@H](C(=O)NCC(=O)NCC(=O)N[C@@H](CO)C(=O)NCC(=O)NCC(=O)N[C@@H](CSSC[C@H](N)C(=O)NCC(=O)NCC(=O)N[C@@H](C)C(=O)NCC(=O)N[C@@H](Cc1ccc(O)cc1)C(=O)N[C@@H](CC(C)C)C(=O)N[C@@H](CC(C)C)C(=O)NCC(=O)N[C@@H](CCCCN)C(=O)N[C@H](C(=O)N[C@@H](CC(N)=O)C(=O)N[C@@H](CC(C)C)C(=O)N[C@@H](CCCCN)C(=O)N[C@@H](C)C(=O)N[C@@H](CC(C)C)C(=O)N[C@@H](C)C(=O)N[C@@H](C)C(=O)N[C@@H](CC(C)C)C(=O)N[C@@H](C)C(=O)N[C@@H](CCCCN)C(=O)N[C@@H](CCCCN)C(=O)N[C@H](C(=O)N[C@@H](CC(C)C)C(N)=O)[C@@H](C)CC)[C@@H](C)CC)C(N)=O)[C@@H](C)O` [GFPβ11-(S-S)-TP10]: the “cytotoxicity / morphological changes” value is listed as “very high level of cytotoxicity; also recorded: high toxicity”.

For the molecule `CC[C@H](C)[C@H](NC(=O)CNC(=O)[C@H](C)NC(=O)[C@H](C)NC(=O)[C@H](CC(N)=O)NC(=O)[C@@H](NC(=O)[C@H](Cc1ccc(O)cc1)NC(=O)[C@H](CCC(=O)O)NC(=O)[C@H](Cc1c[nH]cn1)NC(=O)[C@H](CC(C)C)NC(=O)[C@@H](NC(=O)[C@H](CCSC)NC(=O)[C@H](Cc1c[nH]cn1)NC(=O)[C@H](CC(=O)O)NC(=O)[C@@H](N)CCCNC(=N)N)C(C)C)C(C)C)C(=O)N[C@H](C(=O)NCC(=O)NCC(=O)N[C@@H](CO)C(=O)NCC(=O)NCC(=O)N[C@@H](CSSC[C@H](N)C(=O)NCC(=O)NCC(=O)N[C@@H](CCCNC(=N)N)C(=O)N[C@@H](CCCCN)C(=O)N[C@@H](CCCCN)C(=O)N[C@@H](CCCNC(=N)N)C(=O)N[C@@H](CCCNC(=N)N)C(=O)N[C@@H](CCC(N)=O)C(=O)N[C@@H](CCCNC(=N)N)C(=O)N[C@@H](CCCNC(=N)N)C(=O)N[C@@H](CCCNC(=N)N)C(=O)NCC(=O)N[C@@H](Cc1c[nH]c2ccccc12)C(=O)N[C@@H](Cc1c[nH]c2ccccc12)C(=O)NCC(N)=O)C(N)=O)[C@@H](C)O` [GFPβ11-(S-S)-TAT-WW] (I: H-RDHMVLHEYVNAAGITGGSGGC-NH2 / II: H-CGGRKKRRQRRRGWWG-NH2; disulfide I:22-II:1), the “cytotoxicity / morphological changes” value is “severely increased cytotoxicity”.
